Data published in US10092579B2, “Gold(I) complexes with anticancer properties and methods of use thereof” (KING FAHD UNIVERSITY OF PETROLEUM AND MINERALS, priority 2016, dated 2018).
Read-outs that look alike come from different tables or passages of the source.

Legend:
Assay type in all cases: cell-based, human
A549 cancer cell line = experiment: MTT assay for anticancer activity, A549 cells; settings: read-out: IC50 against A549
Protocol: (§1) A549, HeLa and HCT15 human cancer cells were seeded and maintained in triplicate at 4×10^3 cells/well in 100 μL DMEM (Dulbecco's Modified Eagle's Medium) containing 10% FBS (Fetal Bovine Serum) in 96-wells tissue culture plate and incubated for 72 h at 37° C. 5% CO2 in air and 90% relative humidity in CO2 incubator.
(§2) The resultant cultures were incubated for 24 h. The medium of wells was discarded. 100 μL DMEM containing MTT (3-(4,5-Dimethylthiazol-2-Yl)-2,5-Diphenyltetrazolium Bromide) (5 mg/mL) was added to the wells and incubated in CO2 incubator at 37° C. in dark for 4 h. After incubation, a purple colored formazan (artificial chromogenic dye, product of the reduction of water insoluble tetrazolium salts e.g., MMT by dehydrogenases and reductases) in the cells is produced and appeared as dark crystals in the bottom of the wells. The medium of culture was discarded from each well carefully to avoid disruption of monolayer. 100 μL of Dimethylsulphoxide (DMSO) was added in each well. The solution was thoroughly mixed in the wells to dissolve the formazan crystals which ultimately result into a purple solution. The absorbance of the 96-wells plate was taken at 570 nm with Lab systems Multiskan EX-Enzyme-linked immunosorbent assay (EX-ELISA) reader against a reagent blank. All data presented are mean±standard error of the mean (SEM).

HeLa cancer cell line = experiment: MTT assay for anticancer activity, HeLa cells; settings: read-out: IC50 against HeLa
Protocol: as §1, §2

HCT15 cancer cell line = experiment: MTT assay for anticancer activity, HCT15 cells; settings: read-out: IC50 against HCT15
Protocol: as §1, §2

[1] = A549 cells, MTT, 24 h incubation
[2] = HeLa cells, MTT, 24 h incubation
[3] = HCT15 cells, MTT, 24 h incubation

Compound	IC50 (A549 cancer cell line; [1]) [µM]	IC50 (HeLa cancer cell line; [2]) [µM]	IC50 (HCT15 cancer cell line; [3]) [µM]	IC50 (A549 cancer cell line) [µM]	IC50 (HeLa cancer cell line) [µM]	IC50 (HCT15 cancer cell line) [µM]
[Cl][Au].[Cl][Au].c1ccc(P(CP(c2ccccc2)c2ccccc2)c2ccccc2)cc1 [[(DPPM)(AuCl)2](A0), [μ-Bis(diphenylphosphino)methane]dichlorodigold(I)]	137	108	148			
N.N.[Cl][Pt][Cl] [cisplatin]	41.6	19.4	29.5			
tri-tert-butyl-phosphine gold(I) dibenzyldithiocarbamate [Complex (A1)]				96.9	25.6	93.2
